Assay results taken from ChEMBL document CHEMBL4118148, “Design, synthesis and cardiovascular evaluation of some aminoisopropanoloxy derivatives of xanthone” (Bioorg Med Chem, 2018).
The source made the active and inactive calls. No cut-off for these calls is given here.

Columns and labels:
[1] = molecular target: Beta-1 adrenergic receptor (Rattus norvegicus) (UniProt P18090); experiment: Displacement of [3H]-CGP-12177 from adrenergic beta1 receptor in Wistar rat cortex at 10^-5 M incubated for 60 mins by microbeta liquid scintillation counting analysis
Beta-1 adrenergic receptor (Rattus norvegicus), sequence (P18090 whole entry, looked up): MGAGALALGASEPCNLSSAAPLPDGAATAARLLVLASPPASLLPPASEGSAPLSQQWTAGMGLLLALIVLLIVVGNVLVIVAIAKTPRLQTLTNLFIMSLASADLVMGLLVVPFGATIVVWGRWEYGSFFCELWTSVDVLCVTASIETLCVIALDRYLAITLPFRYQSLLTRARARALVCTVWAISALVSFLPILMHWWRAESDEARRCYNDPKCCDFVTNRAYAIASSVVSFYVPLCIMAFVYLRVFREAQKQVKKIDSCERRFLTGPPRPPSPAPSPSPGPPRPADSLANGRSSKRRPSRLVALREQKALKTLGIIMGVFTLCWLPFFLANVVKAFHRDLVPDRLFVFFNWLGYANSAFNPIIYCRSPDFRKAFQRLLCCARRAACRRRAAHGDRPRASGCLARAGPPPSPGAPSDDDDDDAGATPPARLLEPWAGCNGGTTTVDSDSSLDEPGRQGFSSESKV

Rattus norvegicus [2] = experiment: Hypotensive activity in normotensive Wistar rat assessed as reduction in diastolic blood pressure at 1 mg/kg, iv measured over 40th min relative to control; type: functional; set-up: scale not given: the % may be the effect or the level left
Rattus norvegicus [3] = experiment: Hypotensive activity in normotensive Wistar rat assessed as reduction in systolic blood pressure at 1 mg/kg, iv measured over 40th min relative to control; type: functional; set-up: scale not given: the % may be the effect or the level left
Rattus norvegicus [4] = experiment: Hypotensive activity in normotensive Wistar rat assessed as systolic blood pressure at 0.5 mg/kg, iv measured after 10 mins (reference value: 147.7 +/- 5.9 mmHg); type: functional
Rattus norvegicus [5] = experiment: Hypotensive activity in normotensive Wistar rat assessed as systolic blood pressure at 0.5 mg/kg, iv measured after 60 mins (reference value: 116 +/- 4.6 mmHg); type: functional
Rattus norvegicus [6] = experiment: Hypotensive activity in normotensive Wistar rat assessed as systolic blood pressure at 0.5 mg/kg, iv measured after 30 mins (reference value: 116 +/- 4.6 mmHg); type: functional
Rattus norvegicus [7] = experiment: Hypotensive activity in normotensive Wistar rat assessed as systolic blood pressure at 0.5 mg/kg, iv measured after 5 mins (reference value: 147.7 +/- 5.9 mmHg); type: functional
Rattus norvegicus [8] = experiment: Hypotensive activity in normotensive Wistar rat assessed as systolic blood pressure at 0.5 mg/kg, iv measured after 30 mins (reference value: 147.7 +/- 5.9 mmHg); type: functional
Rattus norvegicus [9] = experiment: Hypotensive activity in normotensive Wistar rat assessed as reduction in systolic blood pressure at 0.5 mg/kg, iv measured over 30 mins relative to control; type: functional; set-up: scale not given: the % may be the effect or the level left
Rattus norvegicus [10] = experiment: Hypotensive activity in normotensive Wistar rat assessed as systolic blood pressure at 0.5 mg/kg, iv measured after 60 mins (reference value: 147.7 +/- 5.9 mmHg); type: functional
Rattus norvegicus [11] = experiment: Hypotensive activity in normotensive Wistar rat assessed as reduction in diastolic blood pressure at 0.5 mg/kg, iv measured over 30 mins relative to control; type: functional; set-up: scale not given: the % may be the effect or the level left
Rattus norvegicus [12] = experiment: Hypotensive activity in normotensive Wistar rat assessed as systolic blood pressure at 0.5 mg/kg, iv measured after 10 mins (reference value: 116 +/- 4.6 mmHg); type: functional
Rattus norvegicus [13] = experiment: Hypotensive activity in normotensive Wistar rat assessed as reduction in diastolic blood pressure at 1 mg/kg, iv measured over 30 mins relative to control; type: functional; set-up: scale not given: the % may be the effect or the level left
Rattus norvegicus [14] = experiment: Hypotensive activity in normotensive Wistar rat assessed as reduction in systolic blood pressure administered iv measured after 60 mins; type: functional; set-up: scale not given: the % may be the effect or the level left
Rattus norvegicus [15] = experiment: Hypotensive activity in normotensive Wistar rat assessed as diastolic blood pressure at 2.5 mg/kg, iv measured after 5 mins (reference value: 116.2 +/- 1.2 mmHg); type: functional
Rattus norvegicus [16] = experiment: Hypotensive activity in normotensive Wistar rat assessed as systolic blood pressure at 2.5 mg/kg, iv measured after 20 mins (reference value: 148.5 +/- 2.6 mmHg); type: functional
Rattus norvegicus [17] = experiment: Hypotensive activity in normotensive Wistar rat assessed as reduction in diastolic blood pressure at 2.5 mg/kg, iv measured after 5 to 10 mins relative to control; type: functional; set-up: scale not given: the % may be the effect or the level left
Rattus norvegicus [18] = experiment: Hypotensive activity in normotensive Wistar rat assessed as systolic blood pressure at 2.5 mg/kg, iv measured after 10 mins (reference value: 148.5 +/- 2.6 mmHg); type: functional
Blood = experiment: Anti-aggregative activity in Wistar rat whole blood assessed as inhibition of collagen-induced aggregation up to 100 uM preincubated for 3 mins followed by collagen induction measured for 6 mins; type: functional, tissue-based
Rattus norvegicus [19] = experiment: Hypotensive activity in normotensive Wistar rat assessed as systolic blood pressure at 2.5 mg/kg, iv measured after 60 mins (reference value: 148.5 +/- 2.6 mmHg); type: functional
[20] = (§1) Inhibition of voltage gated calcium channel in Wistar rat aorta assessed as relaxation of KCl-precontracted aortic rings by measuring reduction in calcium entry in presence of phentolamine
Rattus norvegicus [21] = organism: Rattus norvegicus; experiment: as §1
Rattus norvegicus [22] = experiment: Hypotensive activity in normotensive Wistar rat assessed as diastolic blood pressure at 2.5 mg/kg, iv measured after 10 mins (reference value: 116.2 +/- 1.2 mmHg); type: functional
Rattus norvegicus [23] = experiment: Hypotensive activity in normotensive Wistar rat assessed as systolic blood pressure at 2.5 mg/kg, iv measured after 5 mins (reference value: 148.5 +/- 2.6 mmHg); type: functional
Rattus norvegicus [24] = experiment: Hypotensive activity in normotensive Wistar rat assessed as diastolic blood pressure at 2.5 mg/kg, iv measured after 60 mins (reference value: 116.2 +/- 1.2 mmHg); type: functional
Rattus norvegicus [25] = experiment: Hypotensive activity in normotensive Wistar rat assessed as reduction in systolic blood pressure at 2.5 mg/kg, iv measured after 5 to 10 mins relative to control; type: functional; set-up: scale not given: the % may be the effect or the level left
Rattus norvegicus [26] = experiment: Hypotensive activity in normotensive Wistar rat assessed as diastolic blood pressure at 2.5 mg/kg, iv measured after 20 mins (reference value: 116.2 +/- 1.2 mmHg); type: functional
Rattus norvegicus [27] = experiment: Cardiotoxicity in Wistar rat assessed as effect on QT interval time at 1 mg/kg, iv measured after 5 mins (reference value: 59.2 +/- 0.5 ms); type: toxicity, organism-based; details: in vivo
Rattus norvegicus [28] = experiment: Cardiotoxicity in Wistar rat assessed as effect on QRS interval time at 1 mg/kg, iv measured after 1 min (reference value: 19.4 +/- 0.9 ms); type: toxicity, organism-based; details: in vivo
Rattus norvegicus [29] = experiment: Cardiotoxicity in Wistar rat assessed as effect on QRS interval time at 1 mg/kg, iv measured after 15 mins (reference value: 19.4 +/- 0.9 ms); type: toxicity, organism-based; details: in vivo, 0.25 h
Rattus norvegicus [30] = experiment: Cardiotoxicity in Wistar rat assessed as effect on heart rate at 1 mg/kg, iv measured after 5 mins (reference value: 320.6 +/- 8.1 bpm); type: toxicity, organism-based; details: in vivo
Rattus norvegicus [31] = experiment: In vivo inhibition of beta adrenoceptor in Wistar rat assessed as reduction in isoprenaline-induced tachycardia at 1 mg/kg, iv administered as single dose 10 mins prior to isoprenaline injection; type: functional, organism-based
Rattus norvegicus [32] = experiment: Cardiotoxicity in Wistar rat assessed as effect on QTC interval time at 1 mg/kg, iv measured after 15 mins (reference value: 137.7 +/- 2 ms); type: toxicity, organism-based; details: in vivo, 0.25 h
Rattus norvegicus [33] = experiment: Cardiotoxicity in Wistar rat assessed as effect on QRS interval time at 1 mg/kg, iv measured after 5 mins (reference value: 19.4 +/- 0.9 ms); type: toxicity, organism-based; details: in vivo
Rattus norvegicus [34] = experiment: Cardiotoxicity in Wistar rat assessed as effect on QT interval time at 1 mg/kg, iv measured after 1 min (reference value: 59.2 +/- 0.5 ms); type: toxicity, organism-based; details: in vivo
Rattus norvegicus [35] = experiment: Cardiotoxicity in Wistar rat assessed as effect on QT interval time at 1 mg/kg, iv measured after 15 mins (reference value: 59.2 +/- 0.5 ms); type: toxicity, organism-based; details: in vivo, 0.25 h
Rattus norvegicus [36] = experiment: Cardiotoxicity in Wistar rat assessed as effect on PQ interval time at 1 mg/kg, iv measured after 15 mins (reference value: 56.8 +/- 1.8 ms); type: toxicity, organism-based; details: in vivo, 0.25 h
Rattus norvegicus [37] = experiment: Hypotensive activity in normotensive Wistar rat assessed as reduction in diastolic blood pressure at 1 mg/kg, iv measured over 10 mins relative to control; type: functional; set-up: scale not given: the % may be the effect or the level left

Cl.O=c1c2ccccc2oc2cc(OCC(O)CN3CCN(c4ccccn4)CC3)ccc12 (racemic)
Activity [1]: inactive | Activity (Rattus norvegicus [2]): 8 - 10% | Activity (Rattus norvegicus [3]): 8 - 10%

Cl.O=c1c2ccccc2oc2c(OCC(O)CN3CCN(c4ccccn4)CC3)cccc12 (racemic)
Activity (Rattus norvegicus [4]): 144 mmHg | Activity (Rattus norvegicus [5]): 105.7 mmHg | Activity (Rattus norvegicus [6]): 110.3 mmHg | Activity (Rattus norvegicus [7]): 146.7 mmHg | Activity (Rattus norvegicus [8]): 137.7 mmHg | Activity (Rattus norvegicus [9]): 7 - 11% | Activity (Rattus norvegicus [10]): 132 mmHg | Activity (Rattus norvegicus [11]): 5 - 9% | Activity (Rattus norvegicus [12]): 114.3 mmHg

COc1ccccc1OCCNCC(O)COc1cccc2c(=O)c3ccccc3oc12.Cl (racemic)
Activity (Rattus norvegicus [13]): 7 - 14%

COc1ccccc1CNCC(O)COc1cccc2c(=O)c3ccccc3oc12.Cl (racemic)
Activity (Rattus norvegicus [14]): 7%

COc1ccc(CCNCC(O)COc2cccc3c(=O)c4ccccc4oc23)cc1OC.Cl (racemic)
Activity (Rattus norvegicus [15]): 107 mmHg | Activity (Rattus norvegicus [16]): 132 mmHg | Activity (Rattus norvegicus [17]): 8 - 16% | Activity (Rattus norvegicus [18]): 135 mmHg | inhibition (Blood): inactive | Activity (Rattus norvegicus [19]): 133 mmHg | IC50 [20]: 10.3 µM | inhibition (Rattus norvegicus [21]): Dose-dependent effect | inhibition (Rattus norvegicus [21]; concentration not given here): 95% | Activity (Rattus norvegicus [22]): 101.5 mmHg | Activity (Rattus norvegicus [23]): 143.7 mmHg | Activity (Rattus norvegicus [24]): 100.7 mmHg | Activity (Rattus norvegicus [25]): 9 - 12% | Activity (Rattus norvegicus [26]): 99.7 mmHg

CC(C)(C)NCC(O)COc1cccc2c(=O)c3ccccc3oc12.Cl (racemic)
Time (Rattus norvegicus [27]): 59.2 ms | Time (Rattus norvegicus [28]): 19.6 ms | Time (Rattus norvegicus [29]): 19.2 ms | Activity (Rattus norvegicus [30]): 295.6 bpm | inhibition (Rattus norvegicus [31]): Active | Time (Rattus norvegicus [32]): 131 ms | Time (Rattus norvegicus [33]): 19 ms | Time (Rattus norvegicus [34]): 59.2 ms | Time (Rattus norvegicus [35]): 59.6 ms | Time (Rattus norvegicus [36]): 58 ms

COc1ccccc1CCNCC(O)COc1cccc2c(=O)c3ccccc3oc12.Cl (racemic)
Activity (Rattus norvegicus [37]): 7%
